Reference: patent publication US11859021B2, “Compounds for regulating trained immunity, and their methods of use” (Trained Therapeutix Discovery, Inc., priority 2021, dated 2024)

Assays:
[1] = HPLC retention times to compare lipophilicities; type: physicochemical; conditions: Kinetex EVO C18 column, same gradient A to B; higher retention time = more lipophilic
Experimental: Experimentally, one can also compare lipophilicities of molecules by performing HPLC using the same elution gradient. Molecules that have higher affinities with the hydrophobic C18-material of the column are more lipophilic and as a result have a higher retention time.
Methods: HPLC-MS(SIM) and HPLC-ELSD were performed on a Phenomenex Kinetex 5 micrometer EVO C18 100A LC-column (50×2.1 mm) employing the same gradient from A to B eluent, where A=20 mM NH4HCO2 in H2O with 0.1 v/v % formic acid, and B=2-propanol/MeCN/H2O 85:15:5, also with 20 mM NH4HCO2 and 0.1 v/v % formic acid.

[2] = Solubility test in PBS buffer; type: physicochemical; conditions: PBS pH 7.4, 0.2 mg/mL; for Appearance at 37° C.: 1 minute in 37° C. water bath; for Appearance at RT: room temperature
Experimental: First, compounds were weighed in a vial and PBS buffer (137, 2.7, 10 and 1.8 mM in NaCl, KCl, Na2HPO4, KH2PO4, respectively; pH=7.4) was added, such that the concentration would become 0.2 mg/mL in case full dissolution would take place. The sample was shaken, left to stand for an hour, shaken again, and then the appearance of the solution at room temperature (RT) was checked. Next, the sample was warmed for 1 minute in a water bath of 37° C., and the appearance of the solution was checked again. In the below table the results are compiled.

[3] = Solubility test in demineralized water; type: physicochemical; conditions: 0.3 mM, film, sonicated, overnight
Experimental: Next, compounds were weighed and dissolved in chloroform/methanol. The solutions were left to dry in a vial forming a film of the materials. The vials were put in vacuo to remove traces of organic solvent. Demineralized water was added, such that the concentration of the compounds would become 0.3 mM in case full dissolution would take place (0.3 mM corresponds to 0.3 mg/mL for a MW=1000 Dalton compound). The vial was briefly sonicated in a water bath, left to stand overnight, and once again sonicated (sonication at RT). The appearances of the solutions at RT were checked to assess solubilities. In the below table the results are compiled.

human NOD2 (hNOD2) = biological target: T1, human NOD2 (hNOD2) (Homo sapiens, UniProt Q9HC29); test: In vitro NOD2 activation assay in HEK-Blue hNOD2 cells; type: cell-based; conditions: overnight incubation, FIG. 3
T1 construct: host or cells: HEK-Blue hNOD2 cells
T1 sequence (Q9HC29 whole entry): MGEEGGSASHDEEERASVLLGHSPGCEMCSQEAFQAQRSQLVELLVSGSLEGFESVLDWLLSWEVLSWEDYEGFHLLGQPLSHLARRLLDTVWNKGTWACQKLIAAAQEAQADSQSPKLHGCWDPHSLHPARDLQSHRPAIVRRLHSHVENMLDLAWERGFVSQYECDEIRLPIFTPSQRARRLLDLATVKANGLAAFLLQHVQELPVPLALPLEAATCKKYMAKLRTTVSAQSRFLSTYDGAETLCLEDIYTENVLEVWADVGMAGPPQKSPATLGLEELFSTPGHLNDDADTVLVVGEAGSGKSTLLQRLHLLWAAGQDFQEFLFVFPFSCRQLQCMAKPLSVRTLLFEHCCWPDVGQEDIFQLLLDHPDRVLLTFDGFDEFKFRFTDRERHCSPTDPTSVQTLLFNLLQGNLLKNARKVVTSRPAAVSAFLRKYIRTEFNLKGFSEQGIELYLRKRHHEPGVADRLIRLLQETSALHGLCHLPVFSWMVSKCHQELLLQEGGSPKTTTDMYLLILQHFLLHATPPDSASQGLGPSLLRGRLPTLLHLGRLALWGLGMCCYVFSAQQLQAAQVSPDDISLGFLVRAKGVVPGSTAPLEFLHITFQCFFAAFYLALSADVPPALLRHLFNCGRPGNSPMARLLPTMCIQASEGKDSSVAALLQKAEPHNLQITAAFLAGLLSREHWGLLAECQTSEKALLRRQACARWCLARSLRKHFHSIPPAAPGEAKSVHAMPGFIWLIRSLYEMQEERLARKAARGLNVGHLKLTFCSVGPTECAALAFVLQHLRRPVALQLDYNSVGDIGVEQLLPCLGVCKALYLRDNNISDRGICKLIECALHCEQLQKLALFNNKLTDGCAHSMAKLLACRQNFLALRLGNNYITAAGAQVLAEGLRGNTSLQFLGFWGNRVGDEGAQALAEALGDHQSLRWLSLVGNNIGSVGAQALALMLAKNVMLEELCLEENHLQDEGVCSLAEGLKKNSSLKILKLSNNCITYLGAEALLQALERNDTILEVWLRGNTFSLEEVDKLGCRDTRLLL
Experimental: The stimulation of human NOD2 (hNOD2) by compounds disclosed herein was studied by monitoring activation of NF-κB in HEK-Blue™ hNOD2 cells (Invitrogen). 50,000 HEK-Blue™ hNOD2 cells were seeded in HEK-Blue™ Detection Medium in flat-bottom tissue culture plates. Concentration ranges of the test article (compounds diluted from DMSO-solutions (17.8 mmoL/L), first with demineralized water and then with PBS to the desired concentrations) were added to the cells in the tissue culture plates. Cells were incubated overnight at 37° C. and 5% CO2. The following day, supernatants were collected in an ELISA plate and the OD was measured at 620 nm using a spectrophotometer.
The signal in this assay is based on NOD2 stimulation with a ligand which subsequently activates NF-κB and AP-1, resulting in the production of SEAP. Levels of SEAP were then determined with HEK-Blue™ Detection medium (Invitrogen). The hydrolysis of the substrate in the medium by SEAP produces a purple/blue color that was then measured with an Absorbance microplate reader. OD values are mapped based on test article concentration and are depicted in FIG. 3. Assay performance was validated with muramyl dipeptide (CAS number [53678-77-6]).

[4] = Degradation by augmented oxidation test; type: physicochemical; conditions: 12% hydrogen peroxide in water, 80° C., 4 hours
Experimental: The reference compounds MDP and MDP(Bn) as well as the Bn-substituted compounds from Example 7 (i.e. MDP(Bn)-DSPE[click] and Example 14 (i.e. MTP(Bn)-a-DPPE) were mixed with 12% hydrogen peroxide in water and were heated to 80° C. for 4 hours, in order to get a fast degradation of the molecules by oxidation, mimicking slower in-vivo oxidation events.
The resulting reaction mixtures were diluted with acetonitrile and water (1:1) for the MDP and MDP(Bn) test solutions, or with iPrOH, acetonitrile and water (40:7.5:52.5) with 0.1% formic acid and 20 mM ammonium formate for the MDP(Bn)-DSPE[click] and the MTP(Bn)-a-DPPE solutions. The 4 diluted samples were analyzed by HPLC-MS. For reference, the 4 starting materials were also analyzed by HPLC-MS, as well as MDP-DSPE[click] and MTP-a-DPPE, i.e. the de-benzylated reference compounds to the Bn-substituted test molecules.

Structure (SMILES)	HPLC-ELSD t [1] [min]	HPLC-MS t [1] [min]	Appearance at 37° C. [2]	Appearance at RT [2]	Appearance at RT [3]	NOD2 activation (NF-κB/SEAP reporter, OD at 620 nm) (human NOD2 (hNOD2))	Oxidative degradation, products by HPLC-MS [4]
CCCCCCCCCCCCCCCCCC(=O)OC[C@H](COP(=O)(O)OCCNC(=O)Cn1cc(CNC(=O)CC[C@@H](NC(=O)[C@H](C)NC(=O)[C@@H](C)O[C@H]2[C@H](O)[C@@H](CO)OC(O)[C@@H]2NC(C)=O)C(N)=O)nn1)OC(=O)CCCCCCCCCCCCCCCCC (stereo partly shown) [Example 2, MDP-DSPE [Click]]	4.58	4.46	hazy	hazy	Gelly/hazy/precipitate	comparable	
CC(=O)N[C@H]1C(O)O[C@H](CO)[C@@H](O)[C@@H]1O[C@H](C)C(=O)N[C@@H](C)C(=O)N[C@H](CCC(=O)NCc1cn(CC(=O)O[C@H]2CC[C@@]3(C)C(=CC[C@H]4[C@@H]5CC[C@H]([C@H](C)CCCC(C)C)[C@@]5(C)CC[C@@H]43)C2)nn1)C(N)=O (stereo partly shown) [Example 3, MDP-Chol [Click]]			hazy	suspension	Gelly/hazy/precipitate	comparable	
CCCCCCCCCCCCCCCCCC(=O)OC[C@H](COP(=O)(O)OCCNC(=O)Cn1cc(CNC(=O)CC[C@@H](NC(=O)[C@H](C)NC(=O)[C@@H](C)O[C@H]2[C@H](O)[C@@H](CO)OC(OCc3ccccc3)[C@@H]2NC(C)=O)C(N)=O)nn1)OC(=O)CCCCCCCCCCCCCCCCC (stereo partly shown) [Example 7, MDP(Bn)-DSPE [Click]]	5.16	5.16	hazy	suspension	Hazy	comparable	mainly degraded via oxidation of the Bn-group to a benzoate group (+14) followed by hydrolysis of the benzoate (−104)
CC(=O)N[C@H]1[C@@H](OCc2ccccc2)O[C@H](CO)[C@@H](O)[C@@H]1O[C@H](C)C(=O)N[C@@H](C)C(=O)N[C@H](CCC(=O)NCc1cn(CC(=O)O[C@H]2CC[C@@]3(C)C(=CC[C@H]4[C@@H]5CC[C@H]([C@H](C)CCCC(C)C)[C@@]5(C)CC[C@@H]43)C2)nn1)C(N)=O [Example 8, MDP(Bn)-Chol[Click]]			suspension	suspension	Precipitate	able to activate NOD2, but seemingly to a lesser extent	
CCCCCCCCCCCCCCCCCC(=O)OCc1cn(CCCC[C@H](NC(=O)CC[C@@H](NC(=O)[C@H](C)NC(=O)[C@@H](C)O[C@H]2[C@H](O)[C@@H](CO)OC(OCc3ccccc3)[C@@H]2NC(C)=O)C(N)=O)C(N)=O)nn1 (stereo partly shown) [Example 9, MTP-b-C18[Invclick]]					Precipitate		
CCCCCCCCCCCCCCCCCC(=O)NCCCC[C@H](NC(=O)CC[C@@H](NC(=O)[C@H](C)NC(=O)[C@@H](C)O[C@H]1[C@H](O)[C@@H](CO)OC(OCc2ccccc2)[C@@H]1NC(C)=O)C(N)=O)C(N)=O (stereo partly shown) [Example 10, MTP-b-C18]					Precipitate		
CCCCCCCCCCCCCCCCCCNC(=O)CC[C@@H](NC(=O)[C@H](C)NC(=O)[C@@H](C)O[C@H]1[C@H](O)[C@@H](CO)OC(O)[C@@H]1NC(C)=O)C(N)=O (stereo partly shown) [Example 11, MDP-C18]			suspension	suspension	Precipitate		
CCCCCCCCCCCCCCCCCC(=O)OC[C@H](COC(=O)NCCCC[C@H](NC(=O)CC[C@@H](NC(=O)[C@H](C)NC(=O)[C@@H](C)O[C@H]1[C@H](O)[C@@H](CO)OC(OCc2ccccc2)[C@@H]1NC(C)=O)C(N)=O)C(N)=O)OC(=O)CCCCCCCCCCCCCCCCC (stereo partly shown) [Example 13, MTP-b-DSG]	5.49		suspension	suspension	Gel/precipitate	able to activate NOD2, but seemingly to a lesser extent	
CCCCCCCCCCCCCCCC(=O)OC[C@H](COP(=O)(O)OCCNC(=O)[C@H](C)NC(=O)CC[C@@H](NC(=O)[C@H](C)NC(=O)[C@@H](C)O[C@H]1[C@H](O)[C@@H](CO)OC(OCc2ccccc2)[C@@H]1NC(C)=O)C(N)=O)OC(=O)CCCCCCCCCCCCCCC (stereo partly shown) [Example 14, MTP(Bn)-a-DPPE]	3.5	3.61					
CCCCCCCCCCCCCCCCCC(=O)OC[C@H]1OC(O)[C@H](NC(C)=O)[C@@H](O[C@H](C)C(=O)N[C@@H](C)C(=O)N[C@H](CCC(=O)O)C(N)=O)[C@@H]1O (stereo partly drawn) [MDP-C18[mur], N-Acetylmuramyl-L-Alanyl-D-Isoglutamine-6-O-Stearoyl, reference compound]		0.95	clear	clear	Clear		
CCCCCCCCCCCCCCCC(=O)OC[C@H](COP(=O)(O)OCCNC(=O)[C@H](C)NC(=O)CC[C@@H](NC(=O)[C@H](C)NC(=O)[C@@H](C)O[C@H]1[C@H](O)[C@@H](CO)OC(OCc2ccccc2)[C@@H]1NC(C)=O)C(N)=O)OC(=O)CCCCCCCCCCCCCCC (stereo partly shown) [MTP(Bn)-a-DPPE]							mainly degraded via oxidation of the Bn-group to a benzoate group (+14) followed by hydrolysis of the benzoate (−104)
CCCCCCCCCCCCCCCC(=O)OC[C@H](COP(=O)(O)OCCNC(=O)[C@H](C)NC(=O)CC[C@@H](NC(=O)[C@H](C)NC(=O)[C@@H](C)O[C@H]1[C@H](O)[C@@H](CO)OC(O)[C@@H]1NC(C)=O)C(N)=O)OC(=O)CCCCCCCCCCCCCCC (stereo partly drawn) [Mifamurtide, N—(N-Acetylmuramoyl)-L-alanyl-D-alpha-glutaminyl-N-[(7R)-4-hydroxy-4-oxido-10-oxo-7-[(1-oxohexadecyl)oxy]-3,5,9-trioxa-4-phosphapentacos-1-yl]-L-alaninamide, reference compound]	3.04	2.85	clear	hazy	Clear		
